Results from patent US12454534B2, “Pyrrolo[2,3-b]pyrazines as HPK1 inhibitor and the use thereof” (BEIGENE, LTD., priority 2019, dated 2025).
pIC50: −log10 of the molar value.

Assays:
[1] = molecular target: T1, HPK1 kinase (aa1-346, Life Technologies) (Homo sapiens, UniProt Q92918); experiment: HPK1 Kinase Activity Assay at 1 mM ATP (TR-FRET); type: biochemical; details: HPK1 40 nM, read-out: Enzymatic activity IC50
T1 construct: HPK1 kinase (aa1-346, Life Technologies); purchased Life Technologies
T1 sequence (Q92918 1-346): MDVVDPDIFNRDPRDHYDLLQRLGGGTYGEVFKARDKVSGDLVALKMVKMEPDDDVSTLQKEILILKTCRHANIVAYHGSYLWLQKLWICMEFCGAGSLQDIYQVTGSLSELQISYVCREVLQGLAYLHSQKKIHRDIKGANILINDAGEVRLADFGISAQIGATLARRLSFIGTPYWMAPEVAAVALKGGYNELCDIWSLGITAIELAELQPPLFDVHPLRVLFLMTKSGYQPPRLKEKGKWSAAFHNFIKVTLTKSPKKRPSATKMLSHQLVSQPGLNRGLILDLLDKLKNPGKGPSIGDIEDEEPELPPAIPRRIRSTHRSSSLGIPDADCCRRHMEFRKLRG
Protocol: HPK1 Kinase Activity Assay at 1 mM ATP
Compounds disclosed herein were tested for inhibition of HPK1 kinase (aa1-346, Life Technologies) activity in assays based on the time-resolved fluorescence-resonance energy transfer (TR-FRET) methodology. The assays were carried out in 384-well low volume black plates in a reaction mixture containing HPK1 kinase (40 nM), 1 mM ATP, 0.5 μM STK1 substrate and 0-10 μM compound in buffer containing 50 mM HEPES, 0.01% BSA, 0.1 mM Orthovanadate, 10 mM MgCl2, 1 mM DTT, pH=7.0, 0.005% Tween-20. The kinase was incubated with the compounds disclosed herein or DMSO for 60 minutes at room temperature and the reaction was initiated by the addition of ATP and STK1 substrate. After reaction at room temperature for 120 minutes, an equal volume of stop/detection solution was added according to the manufacturer's instruction (CisBio). The stop/detection solution contained STK Antibody-Cryptate and XL665-conjugated streptavidin in Detection Buffer. The TR-FRET signals (ratio of fluorescence emission at 665 nm over emission at 620 nm with excitation at 337 nm wavelength) were recorded on a PHERAstar FS plate reader (BMG Labtech). Phosphorylation of STK1 substrate led to the binding of STK Antibody-Cryptate to the biotinylated STK1 substrate, which places fluorescent donor (Eu^3+ cryptate) in close proximity to the accepter (Streptavidin-XL665), thus resulting in a high degree of fluorescence resonance energy transfer. The inhibition of HPK1 in presence of increasing concentrations of compounds was calculated based on the ratio of fluorescence at 665 nm to that at 620 nm. The IC50 for each compound was derived from fitting the data to the four-parameter logistic equation by Graphpad Prism software.

HEK293 cells = experiment: HEK293 cell viability assay (CellTiter-Glo); type: cell-based; details: 3-day exposure, 0 to 10 μM
Protocol: Cytotoxicity on HEK293 Cells Proliferation (HEK293 Cell Viability Assay)
HEK293 cell line were used in this study. Cell lines were maintained in DMEM (Dulbecco's Modified Eagle Medium) supplemented with 10% fetal bovine serum (Thermo Fisher), 50 units/mL penicillin and streptomycin (Thermo Fisher) and kept at 37° C. in a humidified atmosphere containing 5% CO2 in air. Cell lines were reinstated from frozen stocks that were laid down within 50 passages from the original cells purchased. The growth-inhibitory activity of compounds in HEK293 cells was determined using CellTiter-Glo luminescent cell viability assay (Promega). 3000 cells per well were seeded into a 96-well plate to ensure logarithmic growth for 3 days treatment period. Cells were treated with a 10-point dilution series. The final compound concentration was from 0 to 10 μM. Following a 3-day exposure to the test compounds, 30 μL of CellTiter-Glo reagent was added into 100 μL cell culture medium per well. Mixture was mixed on an orbital shaker for 2 minutes to allow cell lysis, followed by 10 minutes of incubation at room temperature to allow development and stabilization of luminescent signal, which corresponded to the quantity of ATP and thus the quantity of metabolically active cells. Luminescent signal was measured using PHERAstar FS reader (BMG Labtech). IC50 values for cell viability were determined with Dotmatics.

| Compound | pIC50 [1] | pIC50 (HEK293 cells; Homo sapiens, HEK293, 72 h) | pIC50 (HEK293 cells) |
| --- | --- | --- | --- |
| Cc1cc(-c2cnc3[nH]cc(-c4ccc(C(=O)N(C)C)cc4)c3n2)cc2c1CCN(C)C2 [Example 1, 4-[2-(2,5-dimethyl-3,4-dihydro-1H-isoquinolin-7-yl)-5H-pyrrolo[2,3-b]pyrazin-7-yl]-N, N-dimethylbenzamide] | 7.62 | 5.44 |  |
| Cc1cc(-c2c[nH]c3ncc(-c4cc(C)c5c(c4)CN(C)CC5)nc23)ccc1C(=O)N(C)C [Example 2, 4-(2-(2,5-dimethyl-1,2,3,4-tetrahydroisoquinolin-7-yl)-5H-pyrrolo[2,3-b]pyrazin-7-yl)-N, N, 2-trimethylbenzamide] | 7.59 | 5.48 |  |
| COc1cc(-c2cnc3[nH]cc(-c4ccc(C(=O)N(C)C[C@H](C)O)cc4)c3n2)cc2c1CN(C)CC2 [Example 3, (S)—N-(2-hydroxypropyl)-4-(2-(8-methoxy-2-methyl-1,2,3,4-tetrahydroisoquinolin-6-yl)-5H-pyrrolo[2,3-b]pyrazin-7-yl)-N-methylbenzamide] | 7.92 | 5.90 |  |
| COc1cc(-c2cnc3[nH]cc(-c4ccc(C(=O)N(C)C[C@H](C)O)c(C)c4)c3n2)cc2c1CN(C)CC2 [Example 6, (S)—N-(2-hydroxypropyl)-4-(2-(8-methoxy-2-methyl-1,2,3,4-tetrahydroisoquinolin-6-yl)-5H-pyrrolo[2,3-b]pyrazin-7-yl)-N, 2-dimethylbenzamide] | 7.49 | 5.26 |  |
| COc1cc(-c2cnc3[nH]cc(-c4ccc(C(=O)N(C)C[C@@H](C)O)cc4)c3n2)cc2c1CN(C)CC2 [Example 10, (R)—N-(2-hydroxypropyl)-4-(2-(8-methoxy-2-methyl-1,2,3,4-tetrahydroisoquinolin-6-yl)-5H-pyrrolo[2,3-b]pyrazin-7-yl)-N-methylbenzamide] | 7.96 | 5.85 |  |
| COc1cc(-c2cnc3[nH]cc(-c4ccc(C(=O)N5CC6(COC6)C5)cc4)c3n2)cc2c1CN(C)CC2 [Example 15, (4-(2-(8-methoxy-2-methyl-1,2,3,4-tetrahydroisoquinolin-6-yl)-5H-pyrrolo[2,3-b]pyrazin-7-yl)phenyl) (2-oxa-6-azaspiro[3.3]heptan-6-yl)methanone] | 7.77 | 5.98 |  |
| Cc1cc(-c2c[nH]c3ncc(-c4cc(C)c5c(c4)CN(C)CC5)nc23)ccc1C(=O)N1CC2(COC2)C1 [Example 16, (4-(2-(2,5-dimethyl-1,2,3,4-tetrahydroisoquinolin-7-yl)-5H-pyrrolo[2,3-b]pyrazin-7-yl)-2-methylphenyl) (2-oxa-6-azaspiro[3.3]heptan-6-yl)methanone] | 7.06 | < 5.00 |  |
| Cc1cc(-c2cnc3[nH]cc(-c4ccc(C(=O)N(C)CC(C)(C)O)cc4)c3n2)cc2c1CCN(C)C2 [Example 20, 4-(2-(2,5-dimethyl-1,2,3,4-tetrahydroisoquinolin-7-yl)-5H-pyrrolo[2,3-b]pyrazin-7-yl)-N-(2-hydroxy-2-methylpropyl)-N-methylbenzamide] | 7.19 | 5.41 |  |
| Cc1cc(-c2cnc3[nH]cc(-c4ccc(C(=O)N(C)CC(C)(C)O)cc4)c3n2)cc2c1CCN(C)C2 [Example 38, 4-(2-(2,5-dimethyl-1,2,3,4-tetrahydroisoquinolin-7-yl)-5H-pyrrolo[2,3-b]pyrazin-7-yl)-N-(2-hydroxy-2-methylpropyl)-N-methylbenzamide] | 7.19 |  | 5.66 |
| COCCCNC(=O)CN1CCc2c(C)cc(-c3cnc4[nH]cc(-c5ccc(C(=O)N(C)C)c(C)c5)c4n3)cc2C1 [Example 52, 4-(2-(2-(2-((3-methoxypropyl)amino)-2-oxoethyl)-5-methyl-1,2,3,4-tetrahydroisoquinolin-7-yl)-5H-pyrrolo[2,3-b]pyrazin-7-yl)-N, N, 2-trimethylbenzamide] | 7.13 |  |  |
| Cc1cc(-c2c[nH]c3ncc(-c4cc(C)c5c(c4)CN(CCC(=O)N[C@@H]4CCCOC4)CC5)nc23)ccc1C(=O)N(C)C [Example 53, (R)—N, N, 2-trimethyl-4-(2-(5-methyl-2-(3-oxo-3-((tetrahydro-2H-pyran-3-yl)amino)propyl)-1,2,3,4-tetrahydroisoquinolin-7-yl)-5H-pyrrolo[2,3-b]pyrazin-7-yl)benzamide] | 7.11 |  |  |
| Cc1cc(-c2c[nH]c3ncc(-c4cc(C)c5c(c4)CN(CCC(=O)N[C@H]4CCC[C@H]4O)CC5)nc23)ccc1C(=O)N(C)C [Example 54, 4-(2-(2-(3-(((1S, 2R)-2-hydroxycyclopentyl)amino)-3-oxopropyl)-5-methyl-1,2,3,4-tetrahydroisoquinolin-7-yl)-5H-pyrrolo[2,3-b]pyrazin-7-yl)-N, N, 2-trimethylbenzamide] | 7.17 |  |  |
| Cc1cc(-c2c[nH]c3ncc(-c4cc(C)c5c(c4)CN(CCC(=O)NCC4CC4)CC5)nc23)ccc1C(=O)N(C)C [Example 55, 4-(2-(2-(3-((cyclopropylmethyl)amino)-3-oxopropyl)-5-methyl-1,2,3,4-tetrahydroisoquinolin-7-yl)-5H-pyrrolo[2,3-b]pyrazin-7-yl)-N, N, 2-trimethylbenzamide] | 7.05 |  |  |
| Cc1cc(-c2c[nH]c3ncc(-c4cc(C)c5c(c4)CN(CCC(=O)N[C@H]4CC[C@H](O)C4)CC5)nc23)ccc1C(=O)N(C)C [Example 56, 4-(2-(2-(3-(((1S, 3S)-3-hydroxycyclopentyl)amino)-3-oxopropyl)-5-methyl-1,2,3,4-tetrahydroisoquinolin-7-yl)-5H-pyrrolo[2,3-b]pyrazin-7-yl)-N, N, 2-trimethylbenzamide] | 7.03 |  |  |
| COc1cc(-c2cnc3[nH]cc(-c4ccc(C(=O)N(C)C[C@@H]5CCOC5)cc4)c3n2)cc2c1CN(C)CC2 [Example 57, (S)-4-(2-(8-methoxy-2-methyl-1,2,3,4-tetrahydroisoquinolin-6-yl)-5H-pyrrolo[2,3-b]pyrazin-7-yl)-N-methyl-N-((tetrahydrofuran-3-yl)methyl)benzamide] | 7.85 |  |  |
| COc1cc(-c2cnc3[nH]cc(-c4ccc(C(=O)N(C)C)cc4)c3n2)cc2c1CN(CC(C)(C)O)CC2 [Example 58, 4-(2-(2-(2-hydroxy-2-methylpropyl)-8-methoxy-1,2,3,4-tetrahydroisoquinolin-6-yl)-5H-pyrrolo[2,3-b]pyrazin-7-yl)-N, N-dimethylbenzamide] | 7.68 |  |  |
| Cc1cc(-c2cnc3[nH]cc(-c4ccc(C(=O)N(C)CCC#N)cc4)c3n2)cc2c1CCN(C)C2 [Example 59, N-(2-cyanoethyl)-4-(2-(2,5-dimethyl-1,2,3,4-tetrahydroisoquinolin-7-yl)-5H-pyrrolo[2,3-b]pyrazin-7-yl)-N-methylbenzamide] | 7.80 |  |  |
| CN1CCc2c(cc(-c3cnc4[nH]cc(-c5ccc(C(=O)N(C)C)cc5)c4n3)cc2C(F)F)C1 [Example 95, 4-(2-(5-(difluoromethyl)-2-methyl-1,2,3,4-tetrahydroisoquinolin-7-yl)-5H-pyrrolo[2,3-b]pyrazin-7-yl)-N, N-dimethylbenzamide] | 7.15 | 5.29 |  |
| Cc1cc(-c2c[nH]c3ncc(-c4cc(C)c5c(c4)CCN(C)C5)nc23)ccc1C(=O)N(C)C [Example 126, 4-(2-(2,8-dimethyl-1,2,3,4-tetrahydroisoquinolin-6-yl)-5H-pyrrolo[2,3-b]pyrazin-7-yl)-N, N, 2-trimethylbenzamide] | 7.37 | < 5.00 |  |
| [2H]C([2H])([2H])N(C(=O)c1ccc(-c2c[nH]c3ncc(-c4cc(C)c5c(c4)CCN(C)C5)nc23)cc1C)C([2H])([2H])[2H] [Example 128, 4-(2-(2,8-dimethyl-1,2,3,4-tetrahydroisoquinolin-6-yl)-5H-pyrrolo[2,3-b]pyrazin-7-yl)-2-methyl-N,N-bis(methyl-d3)benzamide] | 7.68 |  |  |
